Measured values from article PMC10726367 (Journal of Medicinal Chemistry, 2023).
“Also recorded” adds a separate entry of the source.

Biological target: T1, SERCA2a (Mus musculus, UniProt O55143)
T1 construct: host or cells: HL-1 cells
Assay: Caffeine-induced Ca2+ release assay in HL-1 cells (FLIPR Calcium 6)
Type: cell-based
Conditions: for SERCA2a HL-1 effect class: 10 μM (25 μM for 11d), caffeine assay; for effect on caffeine-induced Ca2+ release (in words): 2 h incubation at various concentrations
Text: It is known that caffeine stimulates the release of calcium from intracellular stores in cells by acting as a RyR activator.[39],[40] The binding site for caffeine is located on the cytosolic side of the protein between the C-terminal and the S2S3 domain.[41] When caffeine binds to RyR2, it interacts with specific amino acids on the protein, which causes conformational changes in the protein’s structure.[42] This opens the RyR2 channel pore, enabling the mass release of calcium ions from the SR. We investigated the effect of caffeine-induced Ca^2+ release in HL-1 cells treated with cytosolic Ca^2+ indicator FLIPR Calcium 6 (Molecular Devices). The HL-1 cell line is an immortalized mouse cardiomyocyte cell line commonly used to study the effects of various substances on cell function.[43] If the tested compound modulates SERCA2a activation, it will cause an increase in Ca^2+ concentration in the SR and the effect of a fixed dose of caffeine on SR Ca^2+ release will be potentiated by increasing doses of a proposed SERCA activator.[26] As a positive control, we used CDN1163, a small-molecule SERCA activator, which is at present in a clinical trial due to its potential therapeutic use for certain cardiac conditions.[27]
HL-1 cells (50,000 per well) were cultivated for 24 h in black-walled, clear-bottom 96-well microplates (Corning, Amsterdam, The Netherlands) covered with fibronectin/gelatin (Merck KGaA, Darmstadt, Germany) in a humidified incubator at 37 °C and 5% CO2.
Changes in Ca^2+ concentration were measured on a multiwell plate reader TECAN Spark 20 M using a FLIPR 6 Calcium Assay Kit from Molecular Devices (Molecular Devices LLC, München, Germany) at 37 °C. The 1000 × stock solutions of the test compounds were prepared in DMSO. A 100 μL solution of test compound in Tyrode’s solution containing FLIPR Calcium 6 dye was incubated for 2 h at 37 °C and 5% CO2 in a humidified incubator. The time courses were recorded in each well. Fluorescence was evoked at 485 nm excitation wavelength and read out in a bottom-read mode at 525 nm. Data were recorded every 2 s, exposure −20 flashes, excitation bandwidth −10 nm, emission bandwidth −15 nm. To initiate Ca^2+ influx, 25 μL of 50 mM caffeine solution in Tyrode’s solution containing 2 mM CaCl2 was injected in each well (speed 100 μL/s) at the 10 s time point, resulting in 10 mM final concentration in the well. The differences between the caffeine-induced peak minus basal fluorescence, ΔFCaff, were taken into account for the analysis. The Tyrode’s solution +0.1 v/v% DMSO was used as a control. The dose–response curves were calculated using the software package GraphPad Prism version 8.3.1. All data are presented as mean ± SD from eight independent experiments. Y = bottom + (top – bottom)/(1 + 10^((LogEC50 – X) × HillSlope)) was used, where HillSlope describes the steepness of the curve and top and bottom are plateaus in the units of the Y axis.

T1 sequence (O55143 1-998 isoform O55143-2): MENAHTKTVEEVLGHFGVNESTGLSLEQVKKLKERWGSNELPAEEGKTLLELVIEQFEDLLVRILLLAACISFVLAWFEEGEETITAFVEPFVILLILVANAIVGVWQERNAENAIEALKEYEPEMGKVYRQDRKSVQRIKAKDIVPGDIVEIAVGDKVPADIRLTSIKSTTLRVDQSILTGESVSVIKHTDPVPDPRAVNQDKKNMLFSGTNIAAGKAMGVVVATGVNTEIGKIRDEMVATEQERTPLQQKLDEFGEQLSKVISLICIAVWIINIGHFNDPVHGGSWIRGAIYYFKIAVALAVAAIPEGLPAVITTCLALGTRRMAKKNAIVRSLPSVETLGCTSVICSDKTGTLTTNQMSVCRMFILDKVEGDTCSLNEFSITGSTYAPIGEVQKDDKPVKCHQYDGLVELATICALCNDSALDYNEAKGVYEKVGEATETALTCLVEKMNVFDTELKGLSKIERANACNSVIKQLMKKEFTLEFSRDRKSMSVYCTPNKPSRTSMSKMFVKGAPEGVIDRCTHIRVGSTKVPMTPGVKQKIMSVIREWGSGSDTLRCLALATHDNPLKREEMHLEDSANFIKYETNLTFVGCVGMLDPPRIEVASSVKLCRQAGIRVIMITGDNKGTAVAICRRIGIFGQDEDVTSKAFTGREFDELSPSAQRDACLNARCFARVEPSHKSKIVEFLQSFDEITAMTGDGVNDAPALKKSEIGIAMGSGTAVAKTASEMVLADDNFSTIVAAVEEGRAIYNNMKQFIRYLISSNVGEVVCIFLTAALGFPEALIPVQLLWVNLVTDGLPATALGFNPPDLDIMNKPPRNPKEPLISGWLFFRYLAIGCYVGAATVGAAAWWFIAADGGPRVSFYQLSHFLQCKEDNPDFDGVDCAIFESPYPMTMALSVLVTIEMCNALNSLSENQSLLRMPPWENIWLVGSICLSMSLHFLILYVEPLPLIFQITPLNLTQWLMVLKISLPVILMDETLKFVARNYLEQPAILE

SERCA2a HL-1 effect class	EC50 (HL-1 cells, 10 mM caffeine, value, interval)	SMILES	effect on caffeine-induced Ca2+ release (in words) (HL-1 cells, 10 mM caffeine)
+++ and ++	–	COc1ccc(SCCCN(CCCCC2(O)CC2)CCCCC2(O)CC2)cc1 [12c, 1,1′-(((3-((4-Methoxyphenyl)thio)propyl)azanediyl)bis(butane-4,1-diyl))bis(cyclopropan-1-ol)]	most efficacious; also recorded: stronger activating effect on caffeine-induced Ca^2+ release at concentrations above 10 μM
++	–	COc1ccc(SCCCNCCCCC2(O)CC2)cc1 [11c, 1-(4-((3-((4-Methoxyphenyl)thio)propyl)amino)butyl)cyclopropan-1-ol]	–
+	–	COc1ccc2c(c1)CN(Cc1ccc(C(=O)O)cc1)CCS2 [ARM210, reference compound]	clear concentration-dependent effect
++	–	COc1ccc(OCCCNCCCCC2(O)CC2)cc1 [11b, 1-(4-((3-(4-Methoxyphenoxy)propyl)amino)butyl)cyclopropan-1-ol]	–
+	–	COc1ccc2c(c1)CN(CCCCC1(O)CC1)CCS2 [11d, 1-(4-(7-Methoxy-2,3-dihydrobenzo[1,4-f]thiazepin-4(5H)-yl)butyl)cyclopropan-1-ol]	least efficacious; also recorded: no saturation effect at concentrations up to 50 μM; also recorded: slight
++	9.2 µM	COc1ccc2c(c1)CN(CCCCN(CCCCC1(O)CC1)CCCCC1(O)CC1)CCS2 [12a, 1,1′-(((4-(7-Methoxy-2,3-dihydrobenzo[1,4-f]thiazepin-4(5H)-yl)butyl)azanediyl)bis(butane-4,1-diyl))bis(cyclopropan-1-ol)]	–
+	–	COc1ccc2c(c1)CN(CCCCNCCCCC1(O)CC1)CCS2 [11a, 1-(4-((4-(7-Methoxy-2,3-dihydrobenzo[1,4-f]thiazepin-4(5H)-yl)butyl)amino)butyl)cyclopropan-1-ol]	most potent
